Test results taken from paper PMC5218480 (PLoS ONE, 2017).

Test system: MV-4-11 cells
Experiment: Gene expression microarray analysis (Affymetrix PrimeView) and GSEA
Format: cell-based, human
Design: RFU PODN (11730768_x_at) / Fold change /veh PODN (11730768_x_at) / RFU LINC00158 (11744669_a_at) / Fold change /veh LINC00158 (11744669_a_at) / RFU DUSP10 (11751237_a_at) / Fold change /veh DUSP10 (11751237_a_at) / RFU ID3 (11757404_x_at) / Fold change /veh ID3 (11757404_x_at) / RFU PLEKHG5 (11737974_s_at) / Fold change /veh PLEKHG5 (11737974_s_at) / RFU LRRC4B (11730491_at) / Fold change /veh LRRC4B (11730491_at) / RFU GIMAP4 (11747438_a_at) / Fold change /veh GIMAP4 (11747438_a_at) / RFU KRT8 (11758183_x_at) / Fold change /veh KRT8 (11758183_x_at) / RFU CNN1 (11734310_a_at) / Fold change /veh CNN1 (11734310_a_at) / RFU VPS37D (11726825_at) / Fold change /veh VPS37D (11726825_at) / RFU C10orf10 (11716522_x_at) / Fold change /veh C10orf10 (11716522_x_at) / RFU KIR2DL2 /// KIR2DL4 /// KIR2DL5A /// KIR2DL5B /// KIR2DS1 /// KIR2DS2 /// KIR2DS3 /// KIR2DS4 /// KIR3DL3 /// KIR3DL3 /// KIR3DS1 (11738374_at) / Fold change /veh KIR2DL2 /// KIR2DL4 /// KIR2DL5A /// KIR2DL5B /// KIR2DS1 /// KIR2DS2 /// KIR2DS3 /// KIR2DS4 /// KIR3DL3 /// KIR3DL3 /// KIR3DS1 (11738374_at) / RFU C1QL1 (11718748_at) / Fold change /veh C1QL1 (11718748_at) / RFU TMPRSS4 (11747572_a_at) / Fold change /veh TMPRSS4 (11747572_a_at) / RFU HAMP (11756126_x_at) / Fold change /veh HAMP (11756126_x_at) / RFU RNFT2 (11725882_a_at) / Fold change /veh RNFT2 (11725882_a_at) / RFU NR4A2 (11747474_a_at) / Fold change /veh NR4A2 (11747474_a_at) / RFU ABCC12 (11746883_a_at) / Fold change /veh ABCC12 (11746883_a_at) / RFU TMEM136 (11760407_x_at) / Fold change /veh TMEM136 (11760407_x_at) / RFU CLDN22 /// WWC2 (11732394_at) / Fold change /veh CLDN22 /// WWC2 (11732394_at) / RFU HLA-DPB1 (11760878_x_at) / Fold change /veh HLA-DPB1 (11760878_x_at) / RFU SPINT1 (11716480_a_at) / Fold change /veh SPINT1 (11716480_a_at) / RFU GAP43 (11754022_s_at) / Fold change /veh GAP43 (11754022_s_at) / RFU A4GNT (11735810_at) / Fold change /veh A4GNT (11735810_at) / RFU PRB3 (11715151_x_at) / Fold change /veh PRB3 (11715151_x_at) / RFU TUBB4B (11761932_at) / Fold change /veh TUBB4B (11761932_at) / RFU CAPN14 (11732068_a_at) / Fold change /veh CAPN14 (11732068_a_at) / RFU TMCC2 (11721928_a_at) / Fold change /veh TMCC2 (11721928_a_at) / RFU IRGQ (11745062_a_at) / Fold change /veh IRGQ (11745062_a_at) / RFU FAM174B (11720279_a_at) / Fold change /veh FAM174B (11720279_a_at) / RFU TMPRSS4 (11748680_a_at) / Fold change /veh TMPRSS4 (11748680_a_at) / RFU FAM212B (11763350_a_at) / Fold change /veh FAM212B (11763350_a_at) / RFU PLEKHG5 (11743358_a_at) / Fold change /veh PLEKHG5 (11743358_a_at) / RFU ZSCAN30 (11745921_a_at) / Fold change /veh ZSCAN30 (11745921_a_at) / RFU CMKLR1 (11741424_a_at) / Fold change /veh CMKLR1 (11741424_a_at) / RFU LOC101060620 /// MAPK8IP1 (11723275_at) / Fold change /veh LOC101060620 /// MAPK8IP1 (11723275_at) / RFU SPTSSB (11747773_x_at) / Fold change /veh SPTSSB (11747773_x_at) / RFU PRSS12 (11739890_at) / Fold change /veh PRSS12 (11739890_at) / RFU BIN1 (11741810_x_at) / Fold change /veh BIN1 (11741810_x_at) / RFU WNT11 (11732464_a_at) / Fold change /veh WNT11 (11732464_a_at) / RFU C10orf10 (11716521_a_at) / Fold change /veh C10orf10 (11716521_a_at) / RFU C5orf56 (11738089_at) / Fold change /veh C5orf56 (11738089_at) / RFU CYB561 (11721691_x_at) / Fold change /veh CYB561 (11721691_x_at) / RFU ANKRD19P (11752326_a_at) / Fold change /veh ANKRD19P (11752326_a_at) / RFU OR2T12 /// OR2T33 /// OR2T8 (11738714_s_at) / Fold change /veh OR2T12 /// OR2T33 /// OR2T8 (11738714_s_at) / RFU VCAN (11748164_a_at) / Fold change /veh VCAN (11748164_a_at) / RFU JSRP1 (11732532_at) / Fold change /veh JSRP1 (11732532_at) / RFU KRTAP10-11 (11738290_x_at) / Fold change /veh KRTAP10-11 (11738290_x_at) / RFU MYO3A (11730013_a_at) / Fold change /veh MYO3A (11730013_a_at) / RFU EBF3 (11725865_a_at) / Fold change /veh EBF3 (11725865_a_at) / RFU CAMK2N1 (11719241_x_at) / Fold change /veh CAMK2N1 (11719241_x_at) / RFU C5orf56 (11738088_a_at) / Fold change /veh C5orf56 (11738088_a_at) / RFU OLFML3 (11715873_a_at) / Fold change /veh OLFML3 (11715873_a_at) / RFU LOC100653217 /// NTM (11731650_a_at) / Fold change /veh LOC100653217 /// NTM (11731650_a_at) / RFU MAPK11 (11762145_a_at) / Fold change /veh MAPK11 (11762145_a_at) / RFU FIZ1 (11724087_x_at) / Fold change /veh FIZ1 (11724087_x_at) / RFU OASL (11726364_x_at) / Fold change /veh OASL (11726364_x_at) / RFU SOX15 (11748057_x_at) / Fold change /veh SOX15 (11748057_x_at) / RFU CD79A (11719716_a_at) / Fold change /veh CD79A (11719716_a_at) / RFU HIST1H1D (11736915_at) / Fold change /veh HIST1H1D (11736915_at) / RFU CASKIN2 (11723855_a_at) / Fold change /veh CASKIN2 (11723855_a_at) / RFU LOC730098 (11760151_x_at) / Fold change /veh LOC730098 (11760151_x_at) / RFU OR4N2 (11742367_at) / Fold change /veh OR4N2 (11742367_at) / RFU PRRT2 (11749266_a_at) / Fold change /veh PRRT2 (11749266_a_at) / RFU SNX32 (11753110_a_at) / Fold change /veh SNX32 (11753110_a_at) / RFU CDHR5 (11726645_a_at) / Fold change /veh CDHR5 (11726645_a_at) / RFU RCAN1 (11760418_a_at) / Fold change /veh RCAN1 (11760418_a_at) / RFU FAM167A (11723789_a_at) / Fold change /veh FAM167A (11723789_a_at) / RFU FAM26E (11764081_at) / Fold change /veh FAM26E (11764081_at) / RFU ISYNA1 (11749810_s_at) / Fold change /veh ISYNA1 (11749810_s_at) / RFU ACY1 (11761880_at) / Fold change /veh ACY1 (11761880_at) / RFU 11764098_at / Fold change /veh 11764098_at / RFU SAMD14 (11745864_x_at) / Fold change /veh SAMD14 (11745864_x_at) / RFU NPB (11741838_a_at) / Fold change /veh NPB (11741838_a_at) / RFU TMPRSS6 (11731388_a_at) / Fold change /veh TMPRSS6 (11731388_a_at) / RFU KRTAP10-2 (11738614_at) / Fold change /veh KRTAP10-2 (11738614_at) / RFU ARHGAP8 /// PRR5-ARHGAP8 (11727945_x_at) / Fold change /veh ARHGAP8 /// PRR5-ARHGAP8 (11727945_x_at) / RFU KRTAP5-7 /// NADSYN1 (11734609_at) / Fold change /veh KRTAP5-7 /// NADSYN1 (11734609_at) / RFU RASL12 (11751679_a_at) / Fold change /veh RASL12 (11751679_a_at) / RFU CDKN2B (11736163_a_at) / Fold change /veh CDKN2B (11736163_a_at) / RFU PRF1 (11729649_at) / Fold change /veh PRF1 (11729649_at) / RFU, ZNF638 /// ZNF638-IT1 / Fold change vs veh, ZNF638 /// ZNF638-IT1 / RFU, PANK3 / Fold change vs veh, PANK3 / RFU, SH3YL1 / Fold change vs veh, SH3YL1 / RFU, ZEB2 / Fold change vs veh, ZEB2 / RFU, NRIP1 / Fold change vs veh, NRIP1 / RFU, PTTG1IP / Fold change vs veh, PTTG1IP / RFU, CAPN2 / Fold change vs veh, CAPN2 / RFU, MED14 / Fold change vs veh, MED14 / RFU, SNORA58 / Fold change vs veh, SNORA58 / RFU, C1orf63 / Fold change vs veh, C1orf63 / RFU, LRRFIP1 / Fold change vs veh, LRRFIP1 / RFU, NDUFAF7 / Fold change vs veh, NDUFAF7 / RFU, SLC12A2 / Fold change vs veh, SLC12A2 / RFU, IBTK / Fold change vs veh, IBTK / RFU, ESF1 / Fold change vs veh, ESF1 / Fold change vs veh, TMEM50B / RFU, TAOK1 / Fold change vs veh, TAOK1 / RFU, ACBD3 / Fold change vs veh, ACBD3 / RFU, TMA16 / Fold change vs veh, TMA16 / RFU, RWDD3 / Fold change vs veh, RWDD3 / RFU, BCAT1 / Fold change vs veh, BCAT1 / RFU, EDEM3 / Fold change vs veh, EDEM3 / RFU, TMEM33 / Fold change vs veh, TMEM33 / RFU, WDR75 / Fold change vs veh, WDR75 / RFU, AHCTF1 / Fold change vs veh, AHCTF1 / RFU, TFRC / Fold change vs veh, TFRC / RFU, ZDHHC17 / Fold change vs veh, ZDHHC17 / RFU, NOM1 / Fold change vs veh, NOM1 / RFU, ARL8B / Fold change vs veh, ARL8B / RFU, ZBTB11 / Fold change vs veh, ZBTB11 / RFU, TAMM41 / Fold change vs veh, TAMM41 / RFU, KIAA1704 /// LOC100996395 / Fold change vs veh, KIAA1704 /// LOC100996395 / RFU, ING1 / Fold change vs veh, ING1 / RFU, TRMT61B / Fold change vs veh, TRMT61B / RFU, FUBP3 / Fold change vs veh, FUBP3 / RFU, TP53 / Fold change vs veh, TP53 / RFU, TNKS2 / Fold change vs veh, TNKS2 / RFU, ZFP14 / Fold change vs veh, ZFP14 / RFU, ACTR2 / Fold change vs veh, ACTR2 / RFU, PPP3R1 / Fold change vs veh, PPP3R1 / RFU, PIK3R1 / Fold change vs veh, PIK3R1 / RFU, HNRNPA1 / Fold change vs veh, HNRNPA1 / RFU, RNF170 / Fold change vs veh, RNF170 / RFU, ZNF28 / Fold change vs veh, ZNF28 / RFU, RNGTT / Fold change vs veh, RNGTT / RFU, OGT / Fold change vs veh, OGT / RFU, BRD1 / Fold change vs veh, BRD1 / RFU, MARS / Fold change vs veh, MARS / RFU, ZNF655 / Fold change vs veh, ZNF655 / RFU, FAHD1 / Fold change vs veh, FAHD1 / RFU, BDP1 / Fold change vs veh, BDP1 / RFU, LRRCC1 / Fold change vs veh, LRRCC1 / RFU, ARID1A / Fold change vs veh, ARID1A / RFU, ZNF146 / Fold change vs veh, ZNF146 / RFU, ZNF330 / Fold change vs veh, ZNF330 / RFU, GPN3 / Fold change vs veh, GPN3 / RFU, C9orf123 / Fold change vs veh, C9orf123 / RFU, N4BP2L2 / Fold change vs veh, N4BP2L2 / RFU, ARFIP1 / Fold change vs veh, ARFIP1 / RFU, FAM179B / Fold change vs veh, FAM179B / RFU, BCL10 / Fold change vs veh, BCL10 / RFU, UHRF1BP1L / Fold change vs veh, UHRF1BP1L / RFU, BET1 / Fold change vs veh, BET1 / RFU, CNOT2 / Fold change vs veh, CNOT2 / RFU, ZNF268 / Fold change vs veh, ZNF268 / Fold change vs veh, ZNF507 / RFU, DGCR2 / Fold change vs veh, DGCR2 / RFU, WDSUB1 / Fold change vs veh, WDSUB1 / Fold change vs veh, HSP90B1 /// MIR3652 / RFU, ADSS / Fold change vs veh, ADSS / RFU, GK / Fold change vs veh, GK / RFU, ZNF148 / Fold change vs veh, ZNF148 / RFU, TAF9 / Fold change vs veh, TAF9 / RFU, SLC1A5 / Fold change vs veh, SLC1A5 / RFU, SLMO2 / Fold change vs veh, SLMO2 / RFU, ABCC4 / Fold change vs veh, ABCC4 / RFU, LOC101060439 /// RAP1B / Fold change vs veh, LOC101060439 /// RAP1B / RFU, RFX7 / Fold change vs veh, RFX7 / RFU, GTPBP10 / Fold change vs veh, GTPBP10 / RFU, CNEP1R1 / Fold change vs veh, CNEP1R1 / RFU, BIVM-ERCC5 /// ERCC5 / Fold change vs veh, BIVM-ERCC5 /// ERCC5 / RFU, ILF3 / Fold change vs veh, ILF3 / RFU 11762660_at / Fold change /veh 11762660_at / RFU VCAN (11757783_s_at) / Fold change /veh VCAN (11757783_s_at) / RFU DDX43 (11728927_at) / Fold change /veh DDX43 (11728927_at) / RFU KRT8 (11758188_x_at) / Fold change /veh KRT8 (11758188_x_at) / RFU NKD1 (11759106_at) / Fold change /veh NKD1 (11759106_at) / RFU SRD5A1 (11742802_a_at) / Fold change /veh SRD5A1 (11742802_a_at) / RFU TPSAB1 /// TPSB2 (11721975_s_at) / Fold change /veh TPSAB1 /// TPSB2 (11721975_s_at) / RFU GSTM3 (11746129_a_at) / Fold change /veh GSTM3 (11746129_a_at) / RFU IL23R (11737362_x_at) / Fold change /veh IL23R (11737362_x_at) / RFU TMEM51 (11727254_a_at) / Fold change /veh TMEM51 (11727254_a_at) / RFU PIWIL2 (11732686_x_at) / Fold change /veh PIWIL2 (11732686_x_at) / RFU ORM1 (11744905_x_at) / Fold change /veh ORM1 (11744905_x_at) / RFU CCDC152 (11743942_at) / Fold change /veh CCDC152 (11743942_at) / RFU ECM1 (11717891_a_at) / Fold change /veh ECM1 (11717891_a_at) / RFU IL23R (11748794_a_at) / Fold change /veh IL23R (11748794_a_at) / RFU TNFAIP8L3 (11732012_x_at) / Fold change /veh TNFAIP8L3 (11732012_x_at) / RFU MBOAT4 (11741988_at) / Fold change /veh MBOAT4 (11741988_at) / RFU 11764193_at / Fold change /veh 11764193_at / RFU TMEM53 (11763286_at) / Fold change /veh TMEM53 (11763286_at) / RFU MAGEB2 (11727129_at) / Fold change /veh MAGEB2 (11727129_at) / RFU TMEM200A (11744735_a_at) / Fold change /veh TMEM200A (11744735_a_at) / RFU CCDC152 (11751479_a_at) / Fold change /veh CCDC152 (11751479_a_at) / RFU FAM211A (11726209_a_at) / Fold change /veh FAM211A (11726209_a_at) / RFU RGS16 (11746705_a_at) / Fold change /veh RGS16 (11746705_a_at) / RFU VCAN (11755009_s_at) / Fold change /veh VCAN (11755009_s_at) / RFU RHOB (11743442_s_at) / Fold change /veh RHOB (11743442_s_at) / RFU RGS16 (11720943_a_at) / Fold change /veh RGS16 (11720943_a_at) / RFU RGS16 (11720944_at) / Fold change /veh RGS16 (11720944_at) / RFU, VPS4B / Fold change vs veh, VPS4B / RFU, CREB1 / Fold change vs veh, CREB1 / RFU, DNAJC13 / Fold change vs veh, DNAJC13 / RFU, GNAQ / Fold change vs veh, GNAQ / RFU, CDK5R1 / Fold change vs veh, CDK5R1 / RFU, ZRANB3 / Fold change vs veh, ZRANB3 / RFU, CUL4A / Fold change vs veh, CUL4A / RFU, CCNY / Fold change vs veh, CCNY / RFU, UFL1 / Fold change vs veh, UFL1 / RFU, COG3 / Fold change vs veh, COG3 / RFU, DIAPH2 / Fold change vs veh, DIAPH2 / RFU, SKA2 / Fold change vs veh, SKA2 / RFU, AFF3 / Fold change vs veh, AFF3 / RFU, LMF1 / Fold change vs veh, LMF1 / RFU, IPO11 / Fold change vs veh, IPO11 / RFU, DFFB / Fold change vs veh, DFFB / RFU, FOXP1 / Fold change vs veh, FOXP1 / RFU, CARD8 / Fold change vs veh, CARD8 / RFU, STRN3 / Fold change vs veh, STRN3 / RFU, ADK / Fold change vs veh, ADK / RFU, RASSF2 / Fold change vs veh, RASSF2 / RFU, WIPF1 / Fold change vs veh, WIPF1 / RFU, LARP1B / Fold change vs veh, LARP1B / RFU, RASA1 / Fold change vs veh, RASA1 / RFU, RB1 / Fold change vs veh, RB1 / RFU, PPFIA1 / Fold change vs veh, PPFIA1 / RFU, MAT2A / Fold change vs veh, MAT2A / RFU, CCT5 / Fold change vs veh, CCT5 / RFU, WDR92 / Fold change vs veh, WDR92 / RFU, CUX1 / Fold change vs veh, CUX1 / RFU, TTC7A / Fold change vs veh, TTC7A / RFU, TMEM135 / Fold change vs veh, TMEM135 / RFU, DEPTOR / Fold change vs veh, DEPTOR / RFU, CPM / Fold change vs veh, CPM / RFU, DNAJB6 / Fold change vs veh, DNAJB6 / RFU, CACNA2D3 / Fold change vs veh, CACNA2D3 / RFU, DTX4 / Fold change vs veh, DTX4 / RFU, TFCP2 / Fold change vs veh, TFCP2 / RFU, GMCL1 /// GMCL1P1 / Fold change vs veh, GMCL1 /// GMCL1P1 / RFU, AEBP2 / Fold change vs veh, AEBP2 / RFU, SNHG1 /// SNORD22 /// SNORD25 /// SNORD26 /// SNORD27 /// SNORD28 /// SNORD29 /// SNORD31 / Fold change vs veh, SNHG1 /// SNORD22 /// SNORD25 /// SNORD26 /// SNORD27 /// SNORD28 /// SNORD29 /// SNORD31 / Fold change (Aza/veh), C12orf56 (ProbeSet 11735607_a_at) / Fold change (ACY-1035/veh), C12orf56 (ProbeSet 11735607_a_at) / Fold change (Aza/veh), FGFR1OP (ProbeSet 11751329_s_at) / Fold change (ACY-1035/veh), FGFR1OP (ProbeSet 11751329_s_at) / Fold change (Aza/veh), VPS36 (ProbeSet 11739960_a_at) / Fold change (ACY-1035/veh), VPS36 (ProbeSet 11739960_a_at) / RFU SYPL1 (11715823_x_at) / Fold change /veh SYPL1 (11715823_x_at) / RFU IGFBP7 (11715501_s_at) / Fold change /veh IGFBP7 (11715501_s_at) / RFU REEP3 (11722064_at) / Fold change /veh REEP3 (11722064_at) / RFU IGLL1 (11728026_x_at) / Fold change /veh IGLL1 (11728026_x_at): dose or concentration left out as unconfirmed
Conditions: ProbeSet 11722302_a_at; LIST B

Nc1ncn([C@@H]2O[C@H](CO)[C@@H](O)[C@H]2O)c(=O)n1 [azacitidine]
RFU, LRRFIP1: 130.71 RFU
